Test results as given in ChEMBL document CHEMBL3217579, “Prodrug ionic liquids: functionalizing neutral active pharmaceutical ingredients to take advantage of the ionic liquid form” (Medchemcomm, 2013).

Experiments:
[1] = Prodrug conversion in PBS buffer assessed as acetominophen formation at pH 7.4 after 210 mins; format: physicochemical; settings: pH 7.4, 3.5 h
[2] = Prodrug conversion in simulated intestinal fluid assessed as acetominophen formation at pH 6.8 after 210 mins; format: ADME; settings: simulated gi fluid, pH 6.8, 3.5 h
[3] = Prodrug conversion in simulated gastric fluid assessed as acetominophen formation at pH 1.2 after 210 mins; format: ADME, Stomach; settings: simulated gi fluid, pH 1.2, 3.5 h

Measured: Drug metabolism

CC(=O)Nc1ccc(OC(=O)Cn2cc[n+](C)c2)cc1.[Cl-]
Active: all assays above
